Laboratory results taken from patent publication US10597388B2, “Pyridazinone herbicides” (FMC CORPORATION, priority 2014, dated 2020).

Columns and labels:
Assay type in all cases: in vivo
[1] = system: foxtail, giant (giant foxtail, Setaria faberii); assay: Test A greenhouse herbicide test, pre- and postemergence
In short: (§1)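 Seeds in loam–sand blend received a preemergence directed soil spray; plants at 2–10 cm, one- to two-leaf stage, received postemergence sprays. Compounds in a non-phytotoxic solvent with surfactant. After about 10 d in a greenhouse, injury rated visually versus untreated controls on a 0–100 scale (100 = complete control).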

[2] = system: ryegrass, Italian (Italian ryegrass, Lolium multiflorum); assay: as above
In short: as §1

[3] = system: ragweed (common ragweed, Ambrosia elatior); assay: as above
In short: as §1

[4] = system: wheat (Triticum aestivum); assay: as above; details: Postemergence; for Plant response rating, Wheat: 125 g ai/ha, 0 to 100 scale where 0 is no effect and 100 is complete control; for Wheat plant response rating: 500 g ai/ha, 0 to 100 scale, 0 is no effect, 100 is complete control
In short: as §1

[5] = system: kochia (Kochia scoparia); assay: as above
In short: as §1

[6] = system: barnyardgrass (Echinochloa crus-galli); assay: as above
In short: as §1

[7] = system: pigweed (Amaranthus retroflexus); assay: as above
In short: as §1

[8] = system: corn (Zea mays); assay: as above; details: Postemergence; for Plant response rating, Corn: 125 g ai/ha, 0 to 100 scale where 0 is no effect and 100 is complete control; for Corn plant response rating: 500 g ai/ha, 0 to 100 scale, 0 is no effect, 100 is complete control
In short: as §1

[9] = system: ryegrass, Italian (Italian ryegrass, Lolium multiflorum); assay: Test C greenhouse herbicide test, pre- and postemergence
In short: (§2)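 Visual ratings on a 0 to 100 scale (0 = no effect, 100 = complete control) versus untreated controls, scored 13–15 d after treatment. Soil-applied preemergence to seeded loam/sand; foliar postemergence to 1- to 4-leaf plants (2–18 cm) in peat-vermiculite mix; compounds formulated in solvent plus surfactant.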

[10] = system: nutsedge, yellow (yellow nutsedge, Cyperus esculentus); assay: as above
In short: as §2

[11] = system: lambsquarters (Chenopodium album); assay: as above
In short: as §2

[12] = Postemergence, 125 g ai/ha, 0 to 100 scale where 0 is no effect and 100 is complete control
[13] = Postemergence, 500 g ai/ha, 0 to 100 scale, 0 is no effect, 100 is complete control
[14] = Preemergence, 125 g ai/ha, 0 to 100 scale where 0 is no effect and 100 is complete control
[15] = Preemergence, 500 g ai/ha, 0 to 100 scale where 0 is no effect and 100 is complete control
[16] = Postemergence, 125 g ai/ha, scale 0 to 100, 0 is no effect, 100 is complete control
[17] = Postemergence, 250 g ai/ha, scale 0 to 100, 0 no effect, 100 complete control, 13 to 15 d
[18] = Preemergence, 31 g ai/ha, scale 0 to 100, 0 is no effect, 100 is complete control
[19] = Preemergence, 62 g ai/ha, scale 0 to 100, 0 is no effect, 100 is complete control
[20] = Preemergence, 125 g ai/ha, scale 0 to 100, 0 is no effect, 100 is complete control
[21] = Preemergence, 250 g ai/ha, scale 0 to 100 (0 no effect, 100 complete control)
[22] = postemergence, 62 g ai/ha, scale 0 to 100, 0 no effect, 100 complete control

Cc1cc(C)c2sc(C)c(-c3c(OC(=O)OCCCl)c(C)nn(C)c3=O)c2c1 [Compound 85]
Plant response rating, Foxtail, Giant [1, 12]: 90 | Foxtail, Giant plant response rating [1, 13]: 90 | Foxtail, Giant plant response rating [1, 14]: 100 | Plant response rating, Foxtail, Giant [1, 15]: 100 | Plant response rating, Ryegrass, Italian [2, 12]: 90 | Ryegrass, Italian plant response rating [2, 13]: 90 | Ryegrass, Italian plant response rating [2, 14]: 100 | Plant response rating, Ryegrass, Italian [2, 15]: 100 | Plant response rating, Ragweed [3, 12]: 90 | Ragweed plant response rating [3, 13]: 90 | Ragweed plant response rating [3, 14]: 90 | Plant response rating, Ragweed [3, 15]: 90 | Plant response rating, Wheat [4]: 0 | Wheat plant response rating [4]: 0 | Plant response rating, Kochia [5, 12]: 30 | Kochia plant response rating [5, 13]: 70 | Kochia plant response rating [5, 14]: 0 | Plant response rating, Kochia [5, 15]: 30 | Plant response rating, Barnyardgrass [6, 12]: 30 | Barnyardgrass plant response rating [6, 13]: 80 | Barnyardgrass plant response rating [6, 14]: 70 | Plant response rating, Barnyardgrass [6, 15]: 100 | Plant response rating, Pigweed [7, 12]: 90 | Pigweed plant response rating [7, 13]: 100 | Pigweed plant response rating [7, 14]: 100 | Plant response rating, Pigweed [7, 15]: 100 | Plant response rating, Corn [8]: 0 | Corn plant response rating [8]: 0 | Plant response rating, Ryegrass, Italian [9, 16]: 90 | Plant response rating, Ryegrass, Italian [9, 17]: 95 | Plant response rating, Ryegrass, Italian [9, 18]: 85 | Plant response rating, Ryegrass, Italian [9, 19]: 85 | Plant response rating, Ryegrass, Italian [9, 20]: 90 | Ryegrass, Italian plant response rating [9, 21]: 90 | Ryegrass, Italian plant response rating [9, 22]: 90 | Plant response rating, Nutsedge, Yellow [10, 16]: 95 | Plant response rating, Nutsedge, Yellow [10, 17]: 90 | Plant response rating, Nutsedge, Yellow [10, 18]: 70 | Plant response rating, Nutsedge, Yellow [10, 19]: 85 | Plant response rating, Nutsedge, Yellow [10, 20]: 75 | Nutsedge, Yellow plant response rating [10, 21]: 80 | Nutsedge, Yellow plant response rating [10, 22]: 85 | Plant response rating, Lambsquarters [11, 16]: 100 | Plant response rating, Lambsquarters [11, 17]: 100 | Plant response rating, Lambsquarters [11, 18]: 85 | Plant response rating, Lambsquarters [11, 19]: 90 | Plant response rating, Lambsquarters [11, 20]: 90 | Lambsquarters plant response rating [11, 21]: 100 | Lambsquarters plant response rating [11, 22]: 98

C#CCOC(=O)Oc1c(C)nn(C)c(=O)c1-c1c(C)sc2ccc(C)cc12 [Compound 87]
Plant response rating, Foxtail, Giant [1, 12]: 70 | Foxtail, Giant plant response rating [1, 13]: 80 | Foxtail, Giant plant response rating [1, 14]: 80 | Plant response rating, Foxtail, Giant [1, 15]: 100 | Plant response rating, Ryegrass, Italian [2, 12]: 80 | Ryegrass, Italian plant response rating [2, 13]: 80 | Ryegrass, Italian plant response rating [2, 14]: 90 | Plant response rating, Ryegrass, Italian [2, 15]: 100 | Plant response rating, Ragweed [3, 12]: 80 | Ragweed plant response rating [3, 13]: 90 | Ragweed plant response rating [3, 14]: 70 | Plant response rating, Ragweed [3, 15]: 80 | Plant response rating, Wheat [4]: 0 | Wheat plant response rating [4]: 0 | Plant response rating, Kochia [5, 12]: 90 | Kochia plant response rating [5, 13]: 90 | Kochia plant response rating [5, 14]: 80 | Plant response rating, Kochia [5, 15]: 90 | Plant response rating, Barnyardgrass [6, 12]: 40 | Barnyardgrass plant response rating [6, 13]: 80 | Barnyardgrass plant response rating [6, 14]: 50 | Plant response rating, Barnyardgrass [6, 15]: 80 | Plant response rating, Pigweed [7, 12]: 80 | Pigweed plant response rating [7, 13]: 90 | Pigweed plant response rating [7, 14]: 100 | Plant response rating, Pigweed [7, 15]: 100 | Plant response rating, Corn [8]: 0 | Corn plant response rating [8]: 0 | Plant response rating, Ryegrass, Italian [9, 16]: 85 | Plant response rating, Ryegrass, Italian [9, 17]: 85 | Plant response rating, Ryegrass, Italian [9, 18]: 35 | Plant response rating, Ryegrass, Italian [9, 19]: 90 | Plant response rating, Ryegrass, Italian [9, 20]: 90 | Ryegrass, Italian plant response rating [9, 21]: 90 | Ryegrass, Italian plant response rating [9, 22]: 80 | Plant response rating, Nutsedge, Yellow [10, 16]: 80 | Plant response rating, Nutsedge, Yellow [10, 17]: 85 | Plant response rating, Nutsedge, Yellow [10, 18]: 10 | Plant response rating, Nutsedge, Yellow [10, 19]: 35 | Plant response rating, Nutsedge, Yellow [10, 20]: 85 | Nutsedge, Yellow plant response rating [10, 21]: 80 | Nutsedge, Yellow plant response rating [10, 22]: 80 | Plant response rating, Lambsquarters [11, 16]: 98 | Plant response rating, Lambsquarters [11, 17]: 100 | Plant response rating, Lambsquarters [11, 18]: 55 | Plant response rating, Lambsquarters [11, 19]: 80 | Plant response rating, Lambsquarters [11, 20]: 85 | Lambsquarters plant response rating [11, 21]: 100 | Lambsquarters plant response rating [11, 22]: 98

CC(=O)Oc1c(C)nn(C)c(=O)c1-c1ccc(F)c2ccccc12 [Compound 90]
Plant response rating, Foxtail, Giant [1, 12]: 80 | Foxtail, Giant plant response rating [1, 13]: 100 | Foxtail, Giant plant response rating [1, 14]: 50 | Plant response rating, Foxtail, Giant [1, 15]: 100 | Plant response rating, Ryegrass, Italian [2, 12]: 100 | Ryegrass, Italian plant response rating [2, 13]: 100 | Ryegrass, Italian plant response rating [2, 14]: 100 | Plant response rating, Ryegrass, Italian [2, 15]: 100 | Plant response rating, Ragweed [3, 12]: 100 | Ragweed plant response rating [3, 13]: 100 | Ragweed plant response rating [3, 14]: 90 | Plant response rating, Ragweed [3, 15]: 100 | Plant response rating, Wheat [4]: 20 | Wheat plant response rating [4]: 30 | Plant response rating, Kochia [5, 12]: 100 | Kochia plant response rating [5, 13]: 100 | Kochia plant response rating [5, 14]: 70 | Plant response rating, Kochia [5, 15]: 100 | Plant response rating, Barnyardgrass [6, 12]: 80 | Barnyardgrass plant response rating [6, 13]: 100 | Barnyardgrass plant response rating [6, 14]: 60 | Plant response rating, Barnyardgrass [6, 15]: 100 | Plant response rating, Pigweed [7, 12]: 100 | Pigweed plant response rating [7, 13]: 100 | Pigweed plant response rating [7, 14]: 100 | Plant response rating, Pigweed [7, 15]: 100 | Plant response rating, Corn [8]: 20 | Corn plant response rating [8]: 30 | Plant response rating, Ryegrass, Italian [9, 16]: 90 | Plant response rating, Ryegrass, Italian [9, 17]: 90 | Plant response rating, Ryegrass, Italian [9, 18]: 90 | Plant response rating, Ryegrass, Italian [9, 19]: 95 | Plant response rating, Ryegrass, Italian [9, 20]: 95 | Ryegrass, Italian plant response rating [9, 21]: 95 | Ryegrass, Italian plant response rating [9, 22]: 90 | Plant response rating, Nutsedge, Yellow [10, 16]: 90 | Plant response rating, Nutsedge, Yellow [10, 17]: 85 | Plant response rating, Nutsedge, Yellow [10, 18]: 55 | Plant response rating, Nutsedge, Yellow [10, 19]: 45 | Plant response rating, Nutsedge, Yellow [10, 20]: 85 | Nutsedge, Yellow plant response rating [10, 21]: 90 | Nutsedge, Yellow plant response rating [10, 22]: 80 | Plant response rating, Lambsquarters [11, 16]: 98 | Plant response rating, Lambsquarters [11, 17]: 100 | Plant response rating, Lambsquarters [11, 18]: 75 | Plant response rating, Lambsquarters [11, 19]: 80 | Plant response rating, Lambsquarters [11, 20]: 85 | Lambsquarters plant response rating [11, 21]: 100 | Lambsquarters plant response rating [11, 22]: 98
